# Laboratory results from patent US11932874B2, “Method for culturing mesenchymal stem cells using gamma-irradiated serum” (R Bio CO., Ltd., priority 2018, dated 2024).
# How the values were obtained:
# Assay type in all cases: cell-based
# [1] = test system: human adipose tissue-derived stem cells; test: Viability of stem cells cultured in 30 kGy gamma-irradiated FBS (Example 5): cell number, size, viability, doubling time; settings: 30 kGy FBS, 4 days; for Cell No. / Cell size / DT / Viability: average (n = 3)
# Protocol: Fetal bovine serum (FBS) was irradiated with 30 kGy of gamma radiation, thereby preparing gamma-irradiated FBS. Vitamin C (ascorbic acid; L-Ascorbic Acid 2-phosphate) was added to the FBS which was then irradiated with 30 kGy of gamma irradiation, thereby preparing gamma-irradiated FBS pretreated with vitamin C. The vitamin C was added to the FBS at a concentration of 1%. Then, the human adipose tissue-derived stem cells at passage 3, isolated in Example 1, were thawed and inoculated into T75 flasks at a concentration of 0.5×10^6 cells/T75 flask, and the inoculated cells were cultured with AMSC+ culture medium (R-Bio Co., Ltd.) containing the prepared gamma-irradiated FBS or gamma-irradiated FBS pretreated with vitamin C at a concentration of 5% in a CO2 incubator at 37° C. for 2 days. After 2 days of culture, the medium was removed and replaced with AMSC+ culture medium containing 5% gamma-irradiated FBS (a negative control group), medium obtained by adding vitamin C to AMSC+ culture medium containing 5% gamma-irradiated FBS (a vitamin C post-treatment test group), or medium obtained by adding vitamin C to AMSC+ culture medium containing 5% gamma-irradiated FBS pretreated with vitamin C (a vitamin C pre- and post-treatment test group) (Table 4). Vitamin C was added to the culture medium or FBS at a concentration of 1%. After 4 days of culture (FIG. 6), the cell proliferation rate, cell number, viability and doubling time of the stem cells were examined. A positive control group was also prepared as described in Example 2 above. [table]
# [2] = test system: human adipose tissue-derived stem cells; test: Adhesion and proliferation rate of stem cells cultured in 30 kGy gamma-irradiated FBS over passages (Example 6); settings: 30 kGy FBS
# Protocol: Fetal bovine serum (FBS) was irradiated with 30 kGy of gamma radiation, thereby preparing gamma-irradiated FBS. The gamma-irradiated FBS was added to AMSC+ culture medium (R-Bio Co., Ltd.) at a concentration of 5%, and 1% vitamin C was added to the culture medium, thereby preparing a medium (a vitamin C post-treatment group). Then, the human adipose tissue-derived stem cells at passage 1, isolated in Example 1, were thawed and inoculated into T25 flasks at a concentration of 0.7×10^3 cells/T25 flask, and the inoculated cells were cultured with AMSC+ culture medium (R-Bio Co., Ltd.) containing the prepared gamma-irradiated FBS at a concentration of 5% in a CO2 incubator at 37° C. for 2 days. After 2 days of culture, the medium was removed and replaced with AMSC+ culture medium containing 5% normal FBS (a positive control group), or medium obtained by adding vitamin C to AMSC+ culture medium containing 5% gamma-irradiated FBS (a vitamin C post-treatment test group). Vitamin C was added to the culture medium at a concentration of 1%. […] The stem cell adhesion shown in FIGS. 11A-11C was examined with a Leica microscope, and the cell number, cell size and viability shown in Tables 6 to 9 were examined with Luna™ Automated cell counter L10001 (Logos Biosystems).
# [3] = test system: human adipose tissue-derived stem cells; test: Differentiation into adipocytes, oil red O staining (Example 7); settings: 30 KGy gamma radiation, post-treated with 1% vitamin C, passage 4
# Protocol: (§1) For the positive control group and vitamin C post-treatment test group of Example 6, the purity and characteristics of the stem cells at passage 4 were examined. The purity of the stem cells was examined by analyzing the expression of CD markers using FACS (FIG. 12 and Table 10), and the characteristics of the stem cells were examined by analyzing differentiation into adipocytes, osteocytes and chondrocytes (FIGS. 13 to 15). Differentiation into adipocytes was analyzed by oil red 0 staining according to the Sigma-Aldrich protocol, and differentiation into osteocytes was analyzed by alizarin red S staining according to the Lifeline Cell Tech's protocol, and differentiation into chondrocytes was analyzed by TSP2 ELISA.
# [4] = test system: human adipose tissue-derived stem cells; test: Differentiation into osteocytes, alizarin red S staining (Example 7); settings: 30 KGy gamma radiation, post-treated with 1% vitamin C, passage 4
# Protocol: as §1
# [5] = test system: human adipose tissue-derived stem cells; test: Differentiation into chondrocytes, TSP2 ELISA (Example 7); settings: 30 KGy gamma radiation, post-treated with 1% vitamin C, passage 4
# Protocol: as §1
# [6] = 1% Vit. C pre-treatment + 1% Vit. C post-treatment
# [7] = Stem cells #1 P1, 1% vitamin C post-treatment
# [8] = Stem cells #1 P2, 1% vitamin C post-treatment
# [9] = Stem cells #1 P3, 1% vitamin C post-treatment
# [10] = Stem cells #1 P4, 1% vitamin C post-treatment
# [11] = Stem cells #2 P1, 1% vitamin C post-treatment
# [12] = Stem cells #2 P2, 1% vitamin C post-treatment
# [13] = Stem cells #2 P3, 1% vitamin C post-treatment
# [14] = Stem cells #2 P4, 1% vitamin C post-treatment
# [15] = Stem cells #3 P1, 1% vitamin C post-treatment
# [16] = Stem cells #3 P2, 1% vitamin C post-treatment
# [17] = Stem cells #3 P3, 1% vitamin C post-treatment
# [18] = Stem cells #3 P4, 1% vitamin C post-treatment
compound,measurement,setting,value
"O=C1O[C@H]([C@@H](O)CO)C(O)=C1OP(=O)(O)O [AA2P, L-Ascorbic Acid 2-phosphate]",Cell No.,[1]; 1% Vit. C post-treatment,4.3 ×10^6 cells
same,Cell size,[1]; 1% Vit. C post-treatment,19.3 μm
same,DT,[1]; 1% Vit. C post-treatment,29.9 h
same,Viability,[1]; 1% Vit. C post-treatment,86.9%
same,Cell No.,[1]; [6],5.7 ×10^6 cells
same,Cell size,[1]; [6],20.3 μm
same,DT,[1]; [6],28.1 h
same,Viability,[1]; [6],86.5%
same,Cell No.,[1]; 1% Vit. C pre-treatment,5.8 ×10^6 cells
same,Cell size,[1]; 1% Vit. C pre-treatment,18.8 μm
same,DT,[1]; 1% Vit. C pre-treatment,27.6 h
same,Viability,[1]; 1% Vit. C pre-treatment,92.3%
same,"cell number, viability and doubling time versus positive control group",[1]; vitamin C post-treatment test group,increased to the levels of the positive control group
same,"adhesion, cell number, cell size and viability versus positive control group","[2]; 1% vitamin C post-treatment, stem cells at passages 2 to 4",did not differ from those of the positive control group
same,Cell number,[2]; [7],2.4 × 10^7 cells
same,Cell size,[2]; [7],19.1 μm
same,Viability,[2]; [7],84.4%
same,Cell number,[2]; [8],1.6 × 10^7 cells
same,Cell size,[2]; [8],19.5 μm
same,Viability,[2]; [8],83%
same,Cell number,[2]; [9],2.0 × 10^7 cells
same,Cell size,[2]; [9],19.2 μm
same,Viability,[2]; [9],88.7%
same,Cell number,[2]; [10],3.3 × 10^8 cells
same,Cell size,[2]; [10],20 μm
same,Viability,[2]; [10],87.5%
same,Cell number,[2]; [11],1.8 × 10^7 cells
same,Cell size,[2]; [11],20 μm
same,Viability,[2]; [11],89.6%
same,Cell number,[2]; [12],1.8 × 10^7 cells
same,Cell size,[2]; [12],19.3 μm
same,Viability,[2]; [12],95.5%
same,Cell number,[2]; [13],1.2 × 10^7 cells
same,Cell size,[2]; [13],19.7 μm
same,Viability,[2]; [13],88.9%
same,Cell number,[2]; [14],1.5 × 10^8 cells
same,Cell size,[2]; [14],18.8 μm
same,Viability,[2]; [14],95.6%
same,Cell number,[2]; [15],2.3 × 10^7 cells
same,Cell size,[2]; [15],19.6 μm
same,Viability,[2]; [15],87.1%
same,Cell number,[2]; [16],1.4 × 10^7 cells
same,Cell size,[2]; [16],18 μm
same,Viability,[2]; [16],82%
same,Cell number,[2]; [17],1.4 × 10^7 cells
same,Cell size,[2]; [17],19.3 μm
same,Viability,[2]; [17],88.2%
same,Cell number,[2]; [18],2.1 × 10^8 cells
same,Cell size,[2]; [18],17.8 μm
same,Viability,[2]; [18],88.0%
same,differentiation into adipocytes versus positive control group,[3],did not differ from those of the positive control group
same,differentiation into osteocytes versus positive control group,[4],did not differ from those of the positive control group
same,differentiation into chondrocytes versus positive control group,[5],did not differ from those of the positive control group
